From patent EP4644375A1, “SUBSTITUTED HYDROQUINOLINES FOR THE TREATMENT OF GLIOBLASTOMA MULTIFORME” (Molius Saglik Teknolojileri Anonim Sirketi, priority 2024, dated 2025)

What was measured:
[1] = Peripheral blood micronucleus assay; assay type: in vivo, Rat
Procedure: Blood smears were made on clean microscope slides, allowed to air-dry, treated with methanol for fixation, and then stained with Giemsa (10% in 0.1 mM of sodium phosphate buffer, pH 6.8) for 10 min. After washing with PBS, the slides were examined under a light microscope. The frequencies of micronuclei (MN) were calculated by evaluating 1000 cells per animal.

[2] = In vivo GBM rat model: plasma chemistry; details: GBM rats, 30 mg/kg oral, 5 days, plasma at necropsy
Procedure: (§1) The parameters that were analysed can be seen in Table 11.

[3] = In vivo GBM rat model: body weight; details: treated GBM rats compared to the GBM rats, 30 mg/kg oral, 5 days
Procedure: (§2) An in Vivo study was performed to assess the therapeutic potential of TR-G002, TR-G045, TR-G053, TR-G066, TR-G071 and TR-G091 in the GBM xenograft rat model when administered orally by gavage for five consecutive days. 152 female rats of the Sprague Dawley strain were allocated to the study. Six groups of sixteen females were given dose of 30 mg/kg of the respective target compounds. […] The study design can be seen in Fig. 11 and Table 10.
Individual body weights were manually calculated. Group mean body weights; group mean body weight changes and organ weights were also manually calculated without statistical analysis. To determine the density of positive staining from immunohistochemical and immunofluorescence staining images, five randomly selected areas were evaluated using ZEISS Zen Imaging Software. Data were statistically defined as mean and standard deviation (mean ± SD) for the percentage of the area. One-way ANOVA followed by the Tukey test was performed to compare immunoreactive cells and immune-positive stained areas with healthy controls. GraphPad Prism software was used for analysis.

[4] = In vivo GBM rat model: haematology
Procedure: as §1

[5] = test system: U138-MG human glioma cell; assay: Cell proliferation analysis (MTT); assay type: cell-based; details: MTT; for activity at 10 µM / inhibition at 10 µM: Homo sapiens, 48 h, two days
[6] = test system: U87-MG human glioma cell; assay: Cell proliferation analysis (MTT); assay type: cell-based; details: MTT; for activity at 10 µM / inhibition at 10 µM: Homo sapiens, U-87 MG, 48 h, two days
[7] = PAMPA permeability assay, gastrointestinal mimicking membrane; details: 500 µM, 18 hours, 37 °C
Procedure: Permeability assay and analyses were performed according to the manufacturer's instructions. […] After the loading of lipid solutions into the pores, all drug solutions and the permeability controls were put onto the lipid membrane in donor wells. The permeability assay was performed for 18 hours at 37 °C incubator. All samples were collected from acceptor wells after the incubation period was finished and the absorbance values were measured with equilibrium standards for normalization.

[8] = test system: GBM xenograft rat model; assay: In vivo GBM rat model: MRI analysis of tumor volumes; details: GBM rats, 30 mg/kg oral, 5 days, MRI 14th vs 28th day
Procedure: as §2
Female Sprague Dawley rats (age: 6-8 weeks; weight: 255-310 g; ATADEM, Erzurum, Turkey) were utilized in the study. Rats underwent anaesthesia with 5% isoflurane, maintained at 2% isoflurane (1 L/min oxygen), and were positioned in a stereotactic frame for cell implantation (Stoelting Co., IL). […] A burr hole was drilled 1-mm anterior and 3-mm lateral to the right bregma. A microsyringe (Hamilton 1700 series) containing 5×10^4 U87-MG cells suspended in 5 µL of medium at 37 °C was advanced to a depth of 4 mm into the brain. The cells were injected at a rate of 3 µL/ min. Bone wax was used to fill the burr hole to prevent cell suspension reflux. The incision was sutured, and 1 mL of Meloxicam (5 mg/mL; Metacam, Boehringer Ingelheim Vetmedica, Ingelheim, Germany) was administered via a subcutaneous injection.
Fourteen days after inoculation, tumor development in rats was visualized and confirmed through magnetic resonance imaging (MRI). Rats confirmed to have developed tumors were then distributed into six different groups for treatment. […] 9 days after the final treatment dose, the rats underwent another MRI scan and blood and brain samples were taken under anaesthesia.
The anaesthetic was administered via an intraperitoneal route on animals fixed in the supine position with parallel hind limbs. MRI was performed using a 3 Tesla clinical scanner (Magnetom Skyra; Siemens Healthineers, Erlangen, Germany). Rats were placed in the prone position. T2-SPACE (sampling perfection with application-optimized contrast using different flip angle Evolution) sequence was obtained to view the brain in coronal and transverse planes. (TR: 6000 ms, TE: 100 ms, voxel size: 0.5 × 0.5 × 1 mm, 34 slices, slice thickness: 2 mm, slice spacing: 0.6 mm). The volume measurements of brain tumors were performed manually. One radiologist calculated the tumour volume - manually measuring tumour length (L), width (W), and height (H) - and then calculated the tumour volume using the formula 0.5236 × L × W × H (Stuppner S et al., 2020).

[9] = GBM rats, 30 mg/kg oral, 5 days, blood at necropsy

SMILES: Cn1nnc2c(C(N)=O)ncn2c1=O [TMZ, Temozolomide, reference compound]
- MN frequency ([1]; GBM rats, 30 mg/kg oral, 5 days, 1000 cells per animal evaluated): 14.32 ± 3.10
- MN frequency (comparison) ([1]; treated GBM rats): highest observed MN frequency
- ALP [2]: 128.7 IU/L
- ALT [2]: 42.4 IU/L
- AST [2]: 114.63 IU/L
- GLU [2]: 311 mg/dL
- LDH [2]: 499.85 IU/L
- LDL C [2]: 5.12 mmol/L
- TG [2]: 111 mg/dL
- body weight [3]: No significant change in body weight
- HCT [4, 9]: 48.13%
- HGB [4, 9]: 15.13 g/dL
- MCH [4, 9]: 18.10 pg
- MCHC [4, 9]: 31.47 g/dL
- MCV [4, 9]: 57.55 fL
- PLT [4, 9]: 829.67 10^9 /L
- RBC [4, 9]: 8.36 10^12/L
- WBC [4, 9]: 4.92 10^9/L
- PLT levels ([4]; compared to GBM rats): no significant changes
- WBC level ([4]; compared to the GBM rats): did not cause any significant changes
- Inhibition (%) ([5]; reference drugs): 22%
- Proliferation (%) ([5]; reference drugs): 78%
- Inhibition (%) ([6]; reference drugs): 20%
- Proliferation (%) ([6]; reference drugs): 80%

SMILES: C#CCOc1ccc2c(c1)CCC(=O)N2 [TR-G006, 6-(prop-2-yn-1-yloxy)-3,4-dihydroquinolin-2(1H)-one]
- permeability through the gastrointestinal mimicking membrane [7]: highly permeable
- activity at 10 µM [5]: 86%
- inhibition at 10 µM [5]: 14%
- activity at 10 µM [6]: 86%
- inhibition at 10 µM [6]: 14%

SMILES: C=CCOc1ccc2c(c1)CCC(=O)N2 [TR-G014, 6-(allyloxy)-3,4-dihydroquinolin-2(1H)-one]
- permeability through the gastrointestinal mimicking membrane [7]: highly permeable
- activity at 10 µM [5]: 51%
- inhibition at 10 µM [5]: 49%
- activity at 10 µM [6]: 82%
- inhibition at 10 µM [6]: 18%

SMILES: O=C(COc1ccc2c(c1)CCC(=O)N2)NN=Cc1cccs1 [TR-G024, 2-((2-oxo-1,2,3,4-tetrahydroquinolin-6-yl)oxy)-N'-(thiophen-2-ylmethylene)acetohydrazide]
- permeability through the gastrointestinal mimicking membrane [7]: highly permeable
- activity at 10 µM [5]: 70%
- inhibition at 10 µM [5]: 30%
- activity at 10 µM [6]: 80%
- inhibition at 10 µM [6]: 20%

SMILES: O=C1CCc2cc(OS(=O)(=O)c3ccc([N+](=O)[O-])cc3)ccc2N1 [TR-G046, 2-oxo-1,2,3,4-tetrahydroquinolin-6-yl 4-nitrobenzenesulfonate]
- tumor size [8]: reduced the tumor size
- activity at 10 µM [5]: 76%
- inhibition at 10 µM [5]: 24%
- activity at 10 µM [6]: 60%
- inhibition at 10 µM [6]: 40%

SMILES: CN(C(=O)Oc1ccc2c(c1)CCC(=O)N2)c1ccccc1 [TR-G072, 2-oxo-1,2,3,4-tetrahydroquinolin-6-yl methyl(phenyl)carbamate]
- permeability through the gastrointestinal mimicking membrane [7]: highly permeable
- activity at 10 µM [5]: 85%
- inhibition at 10 µM [5]: 15%
- activity at 10 µM [6]: 85%
- inhibition at 10 µM [6]: 15%

SMILES: Cc1ccc(F)cc1NC(=O)Oc1ccc2c(c1)CCC(=O)N2 [TR-G097, 2-oxo-1,2,3,4-tetrahydroquinolin-6-yl (5-fluoro-2-methylphenyl)carbamate]
- permeability through the gastrointestinal mimicking membrane [7]: highly permeable
- activity at 10 µM [5]: 73%
- inhibition at 10 µM [5]: 27%
- activity at 10 µM [6]: 79%
- inhibition at 10 µM [6]: 21%

SMILES: O=C(COc1ccc2c(c1)CCC(=O)N2)N/N=C/c1ccc(F)cc1 [TR-G128, (E)-N'-(4-fluorobenzylidene)-2-((2-oxo-1,2,3,4-tetrahydroquinolin-6-yl)oxy)acetohydrazide]
- permeability through the gastrointestinal mimicking membrane [7]: highly permeable
- activity at 10 µM [5]: 68%
- inhibition at 10 µM [5]: 32%
- activity at 10 µM [6]: 68%
- inhibition at 10 µM [6]: 32%

SMILES: O=C(COc1ccc2c(c1)CCC(=O)N2)N/N=C/c1ccc(-c2ccc(Cl)cc2)cc1 [TR-G146, (E)-N'-((4'-chloro-[1,1'-biphenyl)-4-yl)methylene)-2-((2-oxo-1,2,3,4-tetrahydroquinolin-6-yl)oxy)acetohydrazide]
- inhibition at 10 µM [5]: 21%
- inhibition at 10 µM [6]: 37%

SMILES: CC(=O)CCn1cc(COc2ccc3c(c2)CCC(=O)N3)nn1 [TR-G147, 6-((1-(3-oxobutyl)-1H-1,2,3-triazol-4-yl)methoxy)-3,4-dihydroquinolin-2(1H)-one]
- activity at 10 µM [5]: 122%
- inhibition at 10 µM [5]: -22%
- activity at 10 µM [6]: 89%
- inhibition at 10 µM [6]: 11%

SMILES: O=C1CCc2cc(OCC3CC(c4c(F)cccc4Cl)=NO3)ccc2N1 (stereo not drawn) [TR-G150, 6-((3-(2-chloro-6-fluorophenyl)-4,5-dihydroisoxazol-5-yl)methoxy)-3,4-dihydroquinolm-2(1H)-one]
- activity at 10 µM [5]: 79%
- inhibition at 10 µM [5]: 21%
- activity at 10 µM [6]: 97%
- inhibition at 10 µM [6]: 3%
